Molecular target: T1, PIKfyve (Homo sapiens, UniProt Q9Y2I7)
T1 construct: T7 phage fusion (kinase-tagged phage) or DNA tag for qPCR; made in house; host or cells: E. coli BL21-derived host (T7 phage) for most kinases, HEK-293 for the rest
Assay: Kinase binding assay (kinase-tagged T7 phage, affinity beads, qPCR readout), Kd determination
Details: 11-point 3-fold dilution series
Method: Kinase assays. For most assays, kinase-tagged T7 phage strains were prepared in an E. coli host derived from the BL21 strain. E. coli were grown to log-phase and infected with T7 phage and incubated with shaking at 32° C. until lysis. The lysates were centrifuged and filtered to remove cell debris. The remaining kinases were produced in HEK-293 cells and subsequently tagged with DNA for qPCR detection. Streptavidin-coated magnetic beads were treated with biotinylated small molecule ligands for 30 minutes at room temperature to generate affinity resins for kinase assays. The liganded beads were blocked with excess biotin and washed with blocking buffer (SeaBlock (Pierce), 1% BSA, 0.05% Tween 20, 1 mM DTT) to remove unbound ligand and to reduce non-specific binding. Binding reactions were assembled by combining kinases, liganded affinity beads, and test compounds in 1× binding buffer (20% SeaBlock, 0.17×PBS, 0.05% Tween 20, 6 mM DTT). Test compounds were prepared as 111× stocks in 100% DMSO. Kds were determined using an 11-point 3-fold compound dilution series with three DMSO control points. All compounds for Kd measurements are distributed by acoustic transfer (non-contact dispensing) in 100% DMSO. The compounds were then diluted directly into the assays such that the final concentration of DMSO was 0.9%. All reactions performed in polypropylene 384-well plate. Each was a final volume of 0.02 ml. The assay plates were incubated at room temperature with shaking for 1 hour and the affinity beads were washed with wash buffer (1×PBS, 0.05% Tween 20). The beads were then re-suspended in elution buffer (1×PBS, 0.05% Tween 20, 0.5 μM non-biotinylated affinity ligand) and incubated at room temperature with shaking for 30 minutes. The kinase concentration in the eluates was measured by qPCR.
An 11-point 3-fold serial dilution of each test compound was prepared in 100% DMSO at 100× final test concentration and subsequently diluted to 1× in the assay (final DMSO concentration=1%). Most Kds were determined using a compound top concentration=30,000 nM. If the initial Kd determined was <0.5 nM (the lowest concentration tested), the measurement was repeated with a serial dilution starting at a lower top concentration.

T1 sequence (Q9Y2I7 whole entry, the tested form may be a part): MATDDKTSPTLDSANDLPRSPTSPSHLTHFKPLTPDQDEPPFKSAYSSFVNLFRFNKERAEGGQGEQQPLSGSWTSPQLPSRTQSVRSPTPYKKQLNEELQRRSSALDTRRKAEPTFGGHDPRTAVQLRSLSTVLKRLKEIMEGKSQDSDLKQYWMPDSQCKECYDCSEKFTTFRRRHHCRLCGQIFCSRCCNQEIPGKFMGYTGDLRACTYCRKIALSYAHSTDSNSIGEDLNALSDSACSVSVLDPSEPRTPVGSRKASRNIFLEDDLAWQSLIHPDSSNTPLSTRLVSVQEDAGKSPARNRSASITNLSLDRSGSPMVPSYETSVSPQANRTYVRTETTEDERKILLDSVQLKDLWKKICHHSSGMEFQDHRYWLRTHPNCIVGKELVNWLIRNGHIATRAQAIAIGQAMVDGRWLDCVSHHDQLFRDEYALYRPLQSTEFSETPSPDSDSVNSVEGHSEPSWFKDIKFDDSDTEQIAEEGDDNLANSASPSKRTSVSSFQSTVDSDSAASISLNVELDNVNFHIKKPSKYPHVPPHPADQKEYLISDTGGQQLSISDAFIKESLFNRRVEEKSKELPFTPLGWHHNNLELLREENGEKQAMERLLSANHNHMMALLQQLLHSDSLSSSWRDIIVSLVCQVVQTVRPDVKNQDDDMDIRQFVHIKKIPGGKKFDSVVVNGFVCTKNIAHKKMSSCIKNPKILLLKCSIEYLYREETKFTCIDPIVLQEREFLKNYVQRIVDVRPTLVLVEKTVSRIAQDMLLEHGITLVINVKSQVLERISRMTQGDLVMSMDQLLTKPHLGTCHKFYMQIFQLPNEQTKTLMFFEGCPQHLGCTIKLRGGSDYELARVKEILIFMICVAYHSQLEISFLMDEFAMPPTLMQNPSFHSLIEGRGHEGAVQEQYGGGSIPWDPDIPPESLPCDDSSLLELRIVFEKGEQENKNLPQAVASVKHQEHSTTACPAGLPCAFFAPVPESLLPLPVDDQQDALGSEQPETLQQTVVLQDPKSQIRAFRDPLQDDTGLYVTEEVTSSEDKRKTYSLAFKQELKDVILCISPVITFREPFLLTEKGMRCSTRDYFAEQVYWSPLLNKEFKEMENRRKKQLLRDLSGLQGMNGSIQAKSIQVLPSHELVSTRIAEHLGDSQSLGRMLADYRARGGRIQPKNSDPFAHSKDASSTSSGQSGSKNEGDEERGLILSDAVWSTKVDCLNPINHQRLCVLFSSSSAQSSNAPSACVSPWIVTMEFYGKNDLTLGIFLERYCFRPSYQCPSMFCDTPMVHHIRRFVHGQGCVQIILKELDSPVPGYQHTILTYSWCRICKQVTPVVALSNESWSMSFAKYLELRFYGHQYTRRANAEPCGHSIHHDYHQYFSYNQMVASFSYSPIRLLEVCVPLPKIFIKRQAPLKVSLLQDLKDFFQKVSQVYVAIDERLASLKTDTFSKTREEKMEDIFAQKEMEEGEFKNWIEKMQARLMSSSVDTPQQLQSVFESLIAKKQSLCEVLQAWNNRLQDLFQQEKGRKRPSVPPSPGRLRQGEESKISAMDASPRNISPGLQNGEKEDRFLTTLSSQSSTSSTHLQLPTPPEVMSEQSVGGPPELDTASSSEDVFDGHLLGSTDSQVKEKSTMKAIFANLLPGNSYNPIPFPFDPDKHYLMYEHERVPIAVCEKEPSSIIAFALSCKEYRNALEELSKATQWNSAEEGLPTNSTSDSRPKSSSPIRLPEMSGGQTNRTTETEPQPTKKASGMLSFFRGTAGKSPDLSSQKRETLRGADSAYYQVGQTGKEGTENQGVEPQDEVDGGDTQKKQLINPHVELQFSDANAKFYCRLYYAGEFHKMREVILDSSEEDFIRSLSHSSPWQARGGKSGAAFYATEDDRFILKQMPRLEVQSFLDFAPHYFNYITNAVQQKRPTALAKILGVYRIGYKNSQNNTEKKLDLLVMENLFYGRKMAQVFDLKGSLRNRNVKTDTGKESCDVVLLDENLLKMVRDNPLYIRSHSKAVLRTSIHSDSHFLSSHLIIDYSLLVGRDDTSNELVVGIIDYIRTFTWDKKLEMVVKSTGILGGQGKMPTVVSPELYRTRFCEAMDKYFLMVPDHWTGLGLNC

SMILES: O=C(Nc1cccnc1)N1Cc2nc(N/N=C/c3cccc(Cl)c3)nc(N3CCOCC3)c2C1 [Example 7, 2-[(2E)-2-[(3-chlorophenyl)methylene]hydrazino]-4-morpholino-N-(3-pyridyl)-5,7-dihydropyrrolo[3,4-d]pyrimidine-6-carboxamide]
- Kd: 10 to 60 nM

SMILES: Cc1cccc(/C=N/Nc2nc3c(c(N4CCOCC4)n2)CN(S(=O)(=O)N(C)C)C3)c1 [Example 21, N,N-dimethyl-4-morpholino-2-[(2E)-2-(m-tolylmethylene)hydrazino]-5,7-dihydropyrrolo[3,4-d]pyrimidine-6-sulfonamide]
- Kd: 1 to 5 nM

SMILES: Cc1cccc(/C=N/Nc2nc3c(c(N4CCOCC4)n2)CN(c2ncccn2)C3)c1 [Example 23, 4-morpholino-N-[(E)-m-tolylmethyleneamino]-6-pyrimidin-2-yl-5,7-dihydropyrrolo[3,4-d]pyrimidin-2-amine]
- Kd: 1 to 5 nM

SMILES: O=C(Nc1cccnc1)N1Cc2nc(N/N=C/c3cccc(C(F)(F)F)c3)nc(N3CCOCC3)c2C1 [Example 8, 4-morpholino-N-(3-pyridyl)-2-[(2E)-2-[[3-(trifluoromethyl)phenyl]methylene]hydrazino]-5,7-dihydropyrrolo[3,4-d]pyrimidine-6-carboxamide]
- Kd: 100 to 2000 nM

SMILES: Cc1cccc(/C=N/Nc2nc3c(c(N4CCOCC4)n2)CN(S(=O)(=O)c2cn(C)cn2)C3)c1 [Example 15, 6-(1-methylimidazol-4-yl)sulfonyl-4-morpholino-N-[(E)-m-tolylmethyleneamino]-5,7-dihydropyrrolo[3,4-d]pyrimidin-2-amine]
- Kd: ≤ 1 nM

SMILES: Cc1cccc(/C=N/Nc2nc3c(c(N4CCOCC4)n2)CN(S(=O)(=O)c2ccc(C(=O)O)cc2)C3)c1 [Example 17, 4-[[4-morpholino-2-[(2E)-2-(m-tolylmethylene)hydrazino]-5,7-dihydropyrrolo[3,4-d]pyrimidin-6-yl]sulfonyl]benzoic acid]
- Kd: 1 to 5 nM
